According to patent publication US20260007681A1, “INDOLE DERIVATIVES AS ESTROGEN RECEPTOR DEGRADERS” (REGENTS OF THE UNIVERSITY OF MICHIGAN, priority 2022, published 2026):

Assay: Cell growth assay (WST-8) (Compounds B1-B278)
Assay type: cell-based
Conditions: 96 h; T47D cell line; WST-8, 4 days; read-out: Cell Growth Inhibition in T47D cell line IC50
Description: Cell Growth Assay. The cells are seeded at certain concentration (e.g., at 1500/well) in multi-well plates overnight. Cells are subsequently treated with the compounds. A certain period of time (e.g., 4 days) after the compound treatment, 10% WST-8 reagent is added to the culture medium and incubate under certain condiction (e.g., in a CO2 incubator at 37° C. for 2.5 hours). The absorbance is measured on each sample using a microplate reader at certain wavelength (e.g., 450 nm). The relative absorbance is calculated against the vehicle control from three individually repeats.
Cell Growth Assay. The cells were seeded at 1500/well in 96 well plates overnight. One day after the seeding, they were treated with indicated doses of compounds respectively. 4 days after the compound treatment, 10% WST-8 reagent was added to the culture medium and incubate in a CO2 incubator at 37° C. for 2.5 hours. Before reading, the plate was mixed gently on an orbital shaker for one minute to ensure homogeneous distribution of color. The absorbance was measured of each sample using a microplate reader at a wavelength of 450 nm. The relative absorbance was calculated against the vehicle control from three individually repeats.

SMILES | IC50 [nM]
C[C@@H]1Cc2c([nH]c3ccccc23)[C@@H](c2cnc(N3CC4(CCC(N5CCN6c7cc8c(cc7OC[C@@H]6C5)C(=O)N(C5CCC(=O)NC5=O)C8)CC4)C3)nc2)N1CC(F)F (stereo partly drawn) [Compound 1B32, 3-((S)-3-(2-(5-((1R,3R)-2-(2,2-difluoroethyl)-3-methyl-2,3,4,9-tetrahydro-1H-pyrido[3,4-b]indol-1-yl)pyrimidin-2-yl)-2-azaspiro[3.5]nonan-7-yl)-8-oxo-1,2,3,4,4a,5,8,10-octahydro-9H-pyrazino[1′,2′:4,5][1,4]oxazino[2,3-f]isoindol-9-yl)piperidine-2,6-dione] | > 10
C[C@@H]1Cc2c([nH]c3ccccc23)[C@@H](c2cnc(N3CC(CCN4CCN5c6cc7c(cc6OC[C@@H]5C4)C(=O)N(C4CCC(=O)NC4=O)C7)C3)nc2)N1CC(F)F (stereo partly drawn) [Compound B131, 3-((S)-3-(2-(1-(5-((1R,3R)-2-(2,2-difluoroethyl)-3-methyl-2,3,4,9-tetrahydro-1H-pyrido[3,4-b]indol-1-yl)pyrimidin-2-yl)azetidin-3-yl)ethyl)-8-oxo-1,2,3,4,4a,5,8,10-octahydro-9H-pyrazino[1,2′:4,5][1,4]oxazino[2,3-f]isoindol-9-yl)piperidine-2,6-dione] | > 10
COc1c2c(cc3c1CN(C1CCC(=O)NC1=O)C3=O)CN(CC(=O)N1CCC3(CC1)CCN(c1ncc([C@@H]4c5[nH]c6ccccc6c5C[C@@H](C)N4CC(F)F)cn1)CC3)C2 (stereo partly drawn) [Compound B134, 3-(6-(2-(9-(5-((1R,3R)-2-(2,2-difluoroethyl)-3-methyl-2,3,4,9-tetrahydro-1H-pyrido[3,4-b]indol-1-yl)pyrimidin-2-yl)-3,9-diazaspiro[5.5]undecan-3-yl)-2-oxoethyl)-4-methoxy-1-oxo-3,5,6,7-tetrahydropyrrolo[3,4-f]isoindol-2(1H)-yl)piperidine-2,6-dione] | < 1
C[C@@H]1Cc2c([nH]c3ccccc23)[C@@H](c2cnc(N3CC4(CC(CN5CCN6c7cc8c(cc7OC[C@@H]6C5)C(=O)N(C5CCC(=O)NC5=O)C8)C4)C3)nc2)N1CC(F)F (stereo partly drawn) [Compound B133, 3-((S)-3-((2-(5-((1R,3R)-2-(2,2-difluoroethyl)-3-methyl-2,3,4,9-tetrahydro-1H-pyrido[3,4-b]indol-1-yl)pyrimidin-2-yl)-2-azaspiro[3.3]heptan-6-yl)methyl)-8-oxo-1,2,3,4,4a,5,8,10-octahydro-9H-pyrazino[1′,2′:4,5][1,4]oxazino[2,3-f]isoindol-9-yl)piperidine-2,6-dione] | 1 to 10
